Measured values: US9637483B2, “Heterocyclic compound” (TAKEDA PHARMACEUTICAL COMPANY LIMITED, priority 2013, dated 2017)

Legend:
Format in all cases: biochemical
[1] = molecular target: T1, JAK1 (Homo sapiens, UniProt P23458); assay: JAK1 enzyme inhibition test (LANCE method); conditions: 1 μM test compound; for inhibition at 1 µM: read-out: JAK1 enzyme inhibitory activity (%, 1 μM)
T1 construct: purchased Invitrogen
How it was run: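 Inhibition expressed against no-enzyme wells (100% inhibition), from time-resolved fluorescence at 665 nm after Eu-anti-phosphotyrosine antibody/EDTA detection. Kinase reaction ran 1 h at room temperature, pH 7.5 HEPES buffer, ULight-JAK1 substrate and ATP diluted to 300 nM and 150 μM before addition.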

[2] = molecular target: T2, JAK2 (Homo sapiens, UniProt O60674); assay: JAK2 enzyme inhibition test (LANCE method); conditions: 1 μM test compound; for inhibition at 1 µM: read-out: JAK2 enzyme inhibitory activity (%, 1 μM)
T2 construct: purchased Invitrogen
How it was run: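 TR-FRET (LANCE) read-out, ex 340/em 665 nm with 100 μs delay, after 1 hr room-temperature detection with europium anti-phosphotyrosine antibody and 20 mM EDTA. The preceding 1 hr kinase reaction combined JAK2, ULight-JAK1 substrate and ATP, added as 6 ng/mL, 300 nM and 45 μM solutions; enzyme-free wells defined 100% inhibition.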

[3] = molecular target: T3, JAK3 (Homo sapiens, UniProt P52333); assay: JAK3 enzyme inhibition test (LANCE method); conditions: 1 μM test compound; for inhibition at 1 µM: read-out: JAK3 enzyme inhibitory activity (%, 1 μM)
T3 construct: purchased Invitrogen
T3 sequence (P52333 1-1124): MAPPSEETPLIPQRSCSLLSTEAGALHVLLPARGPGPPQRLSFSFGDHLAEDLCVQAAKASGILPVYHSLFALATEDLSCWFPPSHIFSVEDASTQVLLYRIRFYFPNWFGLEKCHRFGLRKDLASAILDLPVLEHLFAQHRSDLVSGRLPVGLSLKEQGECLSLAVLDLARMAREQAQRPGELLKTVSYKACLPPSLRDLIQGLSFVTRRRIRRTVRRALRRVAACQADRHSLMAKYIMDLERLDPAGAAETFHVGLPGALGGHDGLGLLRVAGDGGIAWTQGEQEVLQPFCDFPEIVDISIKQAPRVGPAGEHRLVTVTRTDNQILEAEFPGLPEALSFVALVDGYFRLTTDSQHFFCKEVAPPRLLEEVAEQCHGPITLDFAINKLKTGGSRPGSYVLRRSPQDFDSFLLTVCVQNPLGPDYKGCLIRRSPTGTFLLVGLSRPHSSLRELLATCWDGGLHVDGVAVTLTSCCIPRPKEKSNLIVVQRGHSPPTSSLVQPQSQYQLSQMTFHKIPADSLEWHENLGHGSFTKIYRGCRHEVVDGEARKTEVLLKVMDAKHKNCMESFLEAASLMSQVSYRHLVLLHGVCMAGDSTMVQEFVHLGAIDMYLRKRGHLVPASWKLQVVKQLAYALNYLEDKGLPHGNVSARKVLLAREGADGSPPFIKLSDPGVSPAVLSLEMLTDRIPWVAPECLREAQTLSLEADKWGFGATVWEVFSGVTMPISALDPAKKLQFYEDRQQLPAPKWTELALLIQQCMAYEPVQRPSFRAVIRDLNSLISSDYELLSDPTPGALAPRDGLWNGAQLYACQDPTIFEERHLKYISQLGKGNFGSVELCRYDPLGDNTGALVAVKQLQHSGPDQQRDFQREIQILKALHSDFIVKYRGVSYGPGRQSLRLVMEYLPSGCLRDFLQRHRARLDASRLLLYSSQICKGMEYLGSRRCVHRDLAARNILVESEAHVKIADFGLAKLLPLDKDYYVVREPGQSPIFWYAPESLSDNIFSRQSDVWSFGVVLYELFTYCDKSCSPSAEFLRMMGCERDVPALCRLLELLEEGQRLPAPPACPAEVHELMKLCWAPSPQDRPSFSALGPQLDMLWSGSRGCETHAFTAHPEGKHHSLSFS
How it was run: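 TR-FRET (LANCE) read: 1 h room-temperature reaction, EDTA quench, Eu-anti-phosphotyrosine antibody, emission 665 nm after 340 nm excitation. Added solutions held 12 ng/mL JAK3, 300 nM ULight-JAK1 substrate and 15 μM ATP (pH 7.5 HEPES). Activity expressed against no-enzyme wells defined as full inhibition.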

[4] = molecular target: T4, TYK2 (Homo sapiens, UniProt P29597); assay: TYK2 enzyme inhibition test (LANCE method); conditions: 1 μM test compound; for inhibition at 1 µM: read-out: TYK2 enzyme inhibitory activity (%, 1 μM)
T4 construct: purchased Invitrogen
How it was run: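 TR-FRET (LANCE) readout: after 1 h room-temperature kinase reaction, EDTA plus 4 nM Eu-labelled anti-phosphotyrosine antibody added, signal at 665 nm (340 nm excitation). Reaction combined TYK2, ULight-JAK1 substrate and ATP, prepared at 375 ng/mL, 300 nM and 30 μM before addition, in pH 7.5 HEPES/MgCl2 buffer; enzyme-free wells define full inhibition.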

T1 sequence (P23458 whole entry): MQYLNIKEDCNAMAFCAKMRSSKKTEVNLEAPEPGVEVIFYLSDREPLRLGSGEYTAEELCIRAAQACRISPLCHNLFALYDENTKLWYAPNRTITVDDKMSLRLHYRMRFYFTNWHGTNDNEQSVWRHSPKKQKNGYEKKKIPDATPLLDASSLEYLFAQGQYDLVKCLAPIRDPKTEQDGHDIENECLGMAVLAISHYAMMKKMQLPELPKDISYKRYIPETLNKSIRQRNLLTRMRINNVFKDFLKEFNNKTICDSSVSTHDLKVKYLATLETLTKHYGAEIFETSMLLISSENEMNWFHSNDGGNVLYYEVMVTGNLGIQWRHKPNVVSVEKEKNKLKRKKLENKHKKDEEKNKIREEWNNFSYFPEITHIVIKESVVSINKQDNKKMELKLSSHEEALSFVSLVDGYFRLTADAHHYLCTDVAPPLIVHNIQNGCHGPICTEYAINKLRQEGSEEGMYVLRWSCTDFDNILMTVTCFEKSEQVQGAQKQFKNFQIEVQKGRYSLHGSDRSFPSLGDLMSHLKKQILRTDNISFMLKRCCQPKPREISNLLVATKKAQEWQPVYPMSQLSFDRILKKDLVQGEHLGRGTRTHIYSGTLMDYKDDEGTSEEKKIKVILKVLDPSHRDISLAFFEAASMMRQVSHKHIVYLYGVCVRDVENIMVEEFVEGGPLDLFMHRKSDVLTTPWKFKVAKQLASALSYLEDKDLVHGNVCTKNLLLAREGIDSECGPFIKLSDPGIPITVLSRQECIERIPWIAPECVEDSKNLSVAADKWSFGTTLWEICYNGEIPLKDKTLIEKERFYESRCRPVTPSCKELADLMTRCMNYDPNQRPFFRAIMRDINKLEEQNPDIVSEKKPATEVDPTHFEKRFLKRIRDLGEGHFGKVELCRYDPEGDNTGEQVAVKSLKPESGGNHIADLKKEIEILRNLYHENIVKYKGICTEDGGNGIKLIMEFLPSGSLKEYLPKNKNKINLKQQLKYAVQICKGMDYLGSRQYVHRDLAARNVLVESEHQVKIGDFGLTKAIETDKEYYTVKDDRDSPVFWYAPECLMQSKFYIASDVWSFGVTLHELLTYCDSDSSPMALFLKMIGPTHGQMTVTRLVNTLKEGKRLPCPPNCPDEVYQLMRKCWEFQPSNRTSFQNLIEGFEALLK
T2 sequence (O60674 whole entry): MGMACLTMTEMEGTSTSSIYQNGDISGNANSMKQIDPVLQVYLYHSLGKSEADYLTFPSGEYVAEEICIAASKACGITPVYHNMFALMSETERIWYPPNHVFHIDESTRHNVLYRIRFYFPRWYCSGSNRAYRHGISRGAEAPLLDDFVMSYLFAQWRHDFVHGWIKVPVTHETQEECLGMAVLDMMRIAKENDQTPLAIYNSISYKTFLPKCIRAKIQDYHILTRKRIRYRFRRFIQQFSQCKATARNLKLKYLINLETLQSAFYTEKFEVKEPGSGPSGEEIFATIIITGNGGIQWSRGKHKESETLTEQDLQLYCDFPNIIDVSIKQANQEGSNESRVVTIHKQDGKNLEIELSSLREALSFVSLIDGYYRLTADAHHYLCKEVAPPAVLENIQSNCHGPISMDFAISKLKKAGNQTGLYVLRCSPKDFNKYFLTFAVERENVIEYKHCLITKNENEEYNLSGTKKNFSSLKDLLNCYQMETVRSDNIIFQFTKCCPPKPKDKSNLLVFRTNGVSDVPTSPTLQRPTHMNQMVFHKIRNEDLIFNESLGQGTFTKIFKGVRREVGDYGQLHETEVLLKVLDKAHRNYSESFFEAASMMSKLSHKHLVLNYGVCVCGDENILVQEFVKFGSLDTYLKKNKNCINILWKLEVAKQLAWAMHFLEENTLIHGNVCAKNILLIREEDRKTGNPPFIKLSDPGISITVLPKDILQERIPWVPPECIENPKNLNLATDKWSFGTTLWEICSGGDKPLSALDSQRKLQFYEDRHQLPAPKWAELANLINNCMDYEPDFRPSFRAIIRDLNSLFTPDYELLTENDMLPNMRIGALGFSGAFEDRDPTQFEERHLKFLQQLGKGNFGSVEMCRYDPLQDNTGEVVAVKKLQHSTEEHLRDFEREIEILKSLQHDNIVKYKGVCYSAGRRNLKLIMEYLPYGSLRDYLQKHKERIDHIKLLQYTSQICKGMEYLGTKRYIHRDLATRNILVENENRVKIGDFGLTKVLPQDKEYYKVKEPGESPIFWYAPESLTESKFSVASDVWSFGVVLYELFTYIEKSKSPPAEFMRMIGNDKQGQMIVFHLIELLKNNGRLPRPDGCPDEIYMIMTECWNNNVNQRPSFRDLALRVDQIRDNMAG
T4 sequence (P29597 whole entry): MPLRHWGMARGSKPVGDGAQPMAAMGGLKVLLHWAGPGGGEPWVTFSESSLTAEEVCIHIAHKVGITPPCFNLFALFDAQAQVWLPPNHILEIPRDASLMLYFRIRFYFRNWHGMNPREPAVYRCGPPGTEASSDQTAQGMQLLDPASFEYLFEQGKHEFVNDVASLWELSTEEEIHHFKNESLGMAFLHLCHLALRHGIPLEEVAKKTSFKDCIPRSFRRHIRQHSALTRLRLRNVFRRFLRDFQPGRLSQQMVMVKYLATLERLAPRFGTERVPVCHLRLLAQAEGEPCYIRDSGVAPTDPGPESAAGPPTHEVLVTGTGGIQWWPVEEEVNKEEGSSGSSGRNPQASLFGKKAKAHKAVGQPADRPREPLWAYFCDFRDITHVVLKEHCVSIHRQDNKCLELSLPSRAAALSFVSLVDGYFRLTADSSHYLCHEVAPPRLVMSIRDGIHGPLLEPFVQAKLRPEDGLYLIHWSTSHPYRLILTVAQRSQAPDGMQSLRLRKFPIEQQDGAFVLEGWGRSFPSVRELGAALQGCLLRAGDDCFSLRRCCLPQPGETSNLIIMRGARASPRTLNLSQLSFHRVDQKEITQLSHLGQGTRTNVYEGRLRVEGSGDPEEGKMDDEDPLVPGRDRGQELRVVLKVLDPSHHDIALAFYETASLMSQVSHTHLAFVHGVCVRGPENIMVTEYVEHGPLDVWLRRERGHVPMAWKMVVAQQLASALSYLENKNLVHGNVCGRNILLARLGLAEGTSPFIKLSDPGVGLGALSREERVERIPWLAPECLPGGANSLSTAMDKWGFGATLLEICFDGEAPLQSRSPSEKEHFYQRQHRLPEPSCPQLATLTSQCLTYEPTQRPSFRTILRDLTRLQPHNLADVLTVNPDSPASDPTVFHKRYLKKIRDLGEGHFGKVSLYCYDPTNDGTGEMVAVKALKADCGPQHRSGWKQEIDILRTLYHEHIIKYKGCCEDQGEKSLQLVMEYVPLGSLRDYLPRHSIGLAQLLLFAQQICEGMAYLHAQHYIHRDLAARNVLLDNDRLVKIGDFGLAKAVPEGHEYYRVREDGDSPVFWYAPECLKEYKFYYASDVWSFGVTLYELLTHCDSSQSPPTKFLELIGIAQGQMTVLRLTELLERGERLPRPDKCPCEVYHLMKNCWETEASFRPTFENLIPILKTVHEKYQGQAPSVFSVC

Work on `Cn1nc(-c2cn(-c3c(F)cccc3F)c(=O)c3c(N)n[nH]c23)cc1C(=O)N1CCOCC1` [Example 66, 3-amino-5-(2,6-difluorophenyl)-7-(1-methyl-5-(morpholin-4-ylcarbonyl)-1H-pyrazol-3-yl)-1,5-dihydro-4H-pyrazolo[4,3-c]pyridin-4-one] yielded an inhibition at 1 µM [1] of 99%, an inhibition at 1 µM [2] of 99% and an inhibition at 1 µM [3] of 100%. For the same compound, the inhibition at 1 µM [4] was 100%.

Compound `Cn1nc(-c2cn(-c3c(F)cccc3C#N)c(=O)c3c(N)n[nH]c23)cc1N1CCOCC1` [Example 67, 2-(3-amino-7-(1-methyl-5-(morpholin-4-yl)-1H-pyrazol-3-yl)-4-oxo-1,4-dihydro-5H-pyrazolo[4,3-c]pyridin-5-yl)-3-fluorobenzonitrile] has an inhibition at 1 µM [1] of 98%, an inhibition at 1 µM [2] of 97% and an inhibition at 1 µM [3] of 99%. The inhibition at 1 µM [4] was 100%.

With `Cn1nc(-c2cn(-c3c(F)cccc3C#N)c(=O)c3c(N)n[nH]c23)cc1C1=CCOCC1` [Example 68, 2-(3-amino-7-(5-(3,6-dihydro-2H-pyran-4-yl)-1-methyl-1H-pyrazol-3-yl)-4-oxo-1,4-dihydro-5H-pyrazolo[4,3-c]pyridin-5-yl)-3-fluorobenzonitrile] the inhibition at 1 µM [1] was 99%, the inhibition at 1 µM [2] was 97% and the inhibition at 1 µM [3] was 99%. It also gave an inhibition at 1 µM [4] of 99%.

`Cn1nc(-c2cn(-c3c(F)cccc3C#N)c(=O)c3c(N)n[nH]c23)cc1C1CCOCC1` [Example 69, 2-(3-amino-7-(1-methyl-5-(tetrahydro-2H-pyran-4-yl)-1H-pyrazol-3-yl)-4-oxo-1,4-dihydro-5H-pyrazolo[4,3-c]pyridin-5-yl)-3-fluorobenzonitrile] was tested, and the inhibition at 1 µM [1] was 97%, the inhibition at 1 µM [2] was 96% and the inhibition at 1 µM [3] was 98%. For the same compound, the inhibition at 1 µM [4] was 99%.

Compound `CN1CCN(c2cc(-c3cn(-c4c(F)cccc4C#N)c(=O)c4c(N)n[nH]c34)nn2C)CC1` [Example 70, 2-(3-amino-7-(1-methyl-5-(4-methylpiperazin-1-yl)-1H-pyrazol-3-yl)-4-oxo-1,4-dihydro-5H-pyrazolo[4,3-c]pyridin-5-yl)-3-fluorobenzonitrile] has an inhibition at 1 µM [1] of 97%, an inhibition at 1 µM [2] of 96% and an inhibition at 1 µM [3] of 99%. It also gave an inhibition at 1 µM [4] of 100%.

With `Cn1nc(-c2cn(-c3c(F)cccc3C#N)c(=O)c3c(N)n[nH]c23)cc1C(C)(C)O` [Example 71, 2-(3-amino-7-(5-(2-hydroxypropan-2-yl)-1-methyl-1H-pyrazol-3-yl)-4-oxo-1,4-dihydro-5H-pyrazolo[4,3-c]pyridin-5-yl)-3-fluorobenzonitrile] the inhibition at 1 µM [1] was 98%, the inhibition at 1 µM [2] was 97% and the inhibition at 1 µM [3] was 98%. The inhibition at 1 µM [4] was 99%.

In the case of `Cn1nc(-c2cn(C3CCCC3(C)C)c(=O)c3c(N)n[nH]c23)cc1CN1CCS(=O)(=O)CC1` (stereo not drawn) [Example 74, 3-amino-5-(2,2-dimethylcyclopentyl)-7-(5-((1,1-dioxidothiomorpholin-4-yl)methyl)-1-methyl-1H-pyrazol-3-yl)-1,5-dihydro-4H-pyrazolo[4,3-c]pyridin-4-one], the “JAK1 enzyme inhibitory activity (%, 1 μM)” value [1] is reported as 98%, the inhibition at 1 µM [2] is reported as 100% and the inhibition at 1 µM [3] is reported as 99%. It also gave an inhibition at 1 µM [4] of 99%.

With `Cn1nc(-c2cn(C3CCCC3(C)C)c(=O)c3c(N)n[nH]c23)cc1CN1CCS(=O)(=O)CC1` (stereo not drawn) [Example 75, 3-amino-5-(2,2-dimethylcyclopentyl)-7-(5-((1,1-dioxidothiomorpholin-4-yl)methyl)-1-methyl-1H-pyrazol-3-yl)-1,5-dihydro-4H-pyrazolo[4,3-c]pyridin-4-one] the “JAK1 enzyme inhibitory activity (%, 1 μM)” value [1] was 66%, the “JAK2 enzyme inhibitory activity (%, 1 μM)” value [2] was 87% and the “JAK3 enzyme inhibitory activity (%, 1 μM)” value [3] was 93%. For the same compound, the “TYK2 enzyme inhibitory activity (%, 1 μM)” value [4] was 92%.

`Cn1nc(-c2cn(C3CCCC3(C)C)c(=O)c3c(N)n[nH]c23)cc1N1CCOCC1` (stereo not drawn) [Example 76, 3-amino-5-(2,2-dimethylcyclopentyl)-7-(1-methyl-5-(morpholin-4-yl)-1H-pyrazol-3-yl)-1,5-dihydro-4H-pyrazolo[4,3-c]pyridin-4-one] showed an inhibition at 1 µM [1] of 99%, an inhibition at 1 µM [2] of 99% and an inhibition at 1 µM [3] of 100%. For the same compound, the inhibition at 1 µM [4] was 100%.

`Cn1nc(-c2cn(C3CCCC3(C)C)c(=O)c3c(N)n[nH]c23)cc1N1CCOCC1` (stereo not drawn) [Example 77, 3-amino-5-(2,2-dimethylcyclopentyl)-7-(1-methyl-5-(morpholin-4-yl)-1H-pyrazol-3-yl)-1,5-dihydro-4H-pyrazolo[4,3-c]pyridin-4-one] was tested, and the “JAK1 enzyme inhibitory activity (%, 1 μM)” value [1] was 79%, the “JAK2 enzyme inhibitory activity (%, 1 μM)” value [2] was 84% and the “JAK3 enzyme inhibitory activity (%, 1 μM)” value [3] was 90%. The “TYK2 enzyme inhibitory activity (%, 1 μM)” value [4] was 96%.

`Cn1nc(-c2cn(C(C3CC3)C3CC3)c(=O)c3c(N)n[nH]c23)cc1N1CCS(=O)(=O)CC1` [Example 78, 3-amino-5-(dicyclopropylmethyl)-7-(5-(1,1-dioxidothiomorpholin-4-yl)-1-methyl-1H-pyrazol-3-yl)-1,5-dihydro-4H-pyrazolo[4,3-c]pyridin-4-one] gave an inhibition at 1 µM [1] of 98%, an inhibition at 1 µM [2] of 99% and an inhibition at 1 µM [3] of 100%. It also gave an inhibition at 1 µM [4] of 99%.

`Cn1nc(-c2cn(C(C3CC3)C3CC3)c(=O)c3c(N)n[nH]c23)cc1N1CCOCC1` [Example 79, 3-amino-5-(dicyclopropylmethyl)-7-(1-methyl-5-(morpholin-4-yl)-1H-pyrazol-3-yl)-1,5-dihydro-4H-pyrazolo[4,3-c]pyridin-4-one] was tested, and the inhibition at 1 µM [1] was 99%, the inhibition at 1 µM [2] was 99% and the inhibition at 1 µM [3] was 100%. It also gave an inhibition at 1 µM [4] of 99%.

With `CC(C)C(C(F)F)n1cc(-c2cc(N3CCOCC3)n(C)n2)c2[nH]nc(N)c2c1=O` (stereo not drawn) [Example 80, 3-amino-5-(1,1-difluoro-3-methylbutan-2-yl)-7-(1-methyl-5-(morpholin-4-yl)-1H-pyrazol-3-yl)-1,5-dihydro-4H-pyrazolo[4,3-c]pyridin-4-one] the inhibition at 1 µM [1] was 89%, the inhibition at 1 µM [2] was 91% and the inhibition at 1 µM [3] was 98%. For the same compound, the inhibition at 1 µM [4] was 99%.

Compound `CC(n1cc(-c2cc(N3CCOCC3)n(C)n2)c2[nH]nc(N)c2c1=O)C1(C)CC1` (stereo not drawn) [Example 81, 3-amino-5-(1-(1-methylcyclopropyl)ethyl)-7-(1-methyl-5-(morpholin-4-yl)-1H-pyrazol-3-yl)-1,5-dihydro-4H-pyrazolo[4,3-c]pyridin-4-one] has an inhibition at 1 µM [1] of 99%, an inhibition at 1 µM [2] of 100% and an inhibition at 1 µM [3] of 100%. For the same compound, the inhibition at 1 µM [4] was 99%.

With `CC(C)C(n1cc(-c2cc(N3CCOCC3)n(C)n2)c2[nH]nc(N)c2c1=O)C(F)(F)F` (stereo not drawn) [Example 82, 3-amino-7-(1-methyl-5-(morpholin-4-yl)-1H-pyrazol-3-yl)-5-(1,1,1-trifluoro-3-methylbutan-2-yl)-1,5-dihydro-4H-pyrazolo[4,3-c]pyridin-4-one] the inhibition at 1 µM [1] was 89%, the inhibition at 1 µM [2] was 87% and the inhibition at 1 µM [3] was 97%. The inhibition at 1 µM [4] was 99%.
